Reference: US20260364184A1, “COMPOUND BASED ON OXOISOINDOLINYL-SUBSTITUTED TETRAHYDROPYRIMIDINE-DIONE AND USE THEREOF” (GLUETACS THERAPEUTICS (SHANGHAI) CO., LTD., priority 2023, published 2026)

Key:
Assay type in all cases: cell-based
[1] = test system: Human B-Cell Lymphoma Cells (RPMI-8226); assay: Inhibition of RPMI-8226 cell proliferation (CellTiter luminescent viability); conditions: Table IA4, IRAK4 inhibitor-based, RPMI-8226, 500 nM, 96 hours, read-out: Inhibition Rate at 500 nM (%)
Experimental: (§1) The tumor cells used herein were cultured in a cell culture medium listed in table 3 at 37 °C in an incubator with 5% CO2. Prior to experimentation, all cell lines used were correctly identified by STR profiling, and tested negative for mycoplasma contamination using a mycoplasma detection kit through routine screenings.
(§2) The IC50 values of the compounds of the present disclosure (including the compounds in Table 1, Table 2, and Examples 1-468) were determined using the CellTiter-Meiluncell Luminescent Cell Viability Assay Kit from Dalian Meilun Biotech Co., Ltd. The detailed procedure is as follows: Tumor cells were seeded in 96-well cell culture plates at the densities specified in Table 4. On the following day, the test compounds of the present disclosure were subjected to serial dilution. The dilution can be performed according to one of the following two methods: • (1) The first dilution method: The test compounds of the present disclosure (including the compounds in Table 1, Table 2, and Examples 1-468) were subjected to 5-fold serial dilutions starting from a highest concentration of 2000 μM, resulting in a total of 9 concentrations from high to low (2000, 400, 80, 16, 3.2, 0.64, 0.128, 0.0256, 0.00512 μM). Subsequently, 0.5 μL of the test compound dilution was transferred into the 96-well plate containing the cells, with each well containing 100 μL of cell culture medium. […] Into the 96-well plate, the diluted test compounds and corresponding detection reagents were added, resulting in final test compound concentrations of 500 nM and 10 nM, respectively. The experimental procedure is described below using the diluted 2 μM test compound as an example.
(§3) 0.5 μL of the aforementioned diluted compound of the present disclosure (including the compounds in Table 1, Table 2, and Examples 1-468) was added to the seeded cells in 100 μL of medium, yielding a final test compound concentration of 10 nM. After the cells were treated with the compounds of the present disclosure for a specified period, the cell viability assay reagent was added to the culture medium according to the kit's instructions to determine cell viability. […] All controls were treated using the same procedure as the compounds of the present disclosure. The growth inhibition curves for the compounds of the present disclosure were plotted using Prism GraphPad software, and the IC50 values were calculated therefrom.

[2] = as above; conditions: Homo sapiens; Table IA4, IRAK4 inhibitor-based; RPMI-8226, 10 nM, 96 hours; read-out: Inhibition Rate at 10 nM (%)
Experimental: as §1, §2, §3

[3] = test system: Human myeloid monocytic leukemia cell line (MV-4-11); assay: Inhibition of MV-4-11 cell proliferation (CellTiter luminescent viability); conditions: Homo sapiens, MV4-11, Table IA3, IRAK4 inhibitor-based, 96 hours; for inhibition at 0.01 µM: MV-4-11, 10 nM, read-out: Inhibition Rate at 10 nM (%); for inhibition at 0.5 µM: MV-4-11, 500 nM, read-out: Inhibition Rate at 500 nM (%)
In short: (§4)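 Cells are seeded in 96-well plates, cultured at 37 °C, 5% CO2, and treated next day with 5-fold serial compound dilutions (stock series from 2000 μM; 0.5 μL into 100 μL medium). Viability is read by CellTiter-Meiluncell luminescence after the set exposure, and IC50 is taken from growth-inhibition curves.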

[4] = test system: Human Acute T Lymphoblastic Leukemia Cells (Molt-4); assay: Inhibition of Molt-4 cell proliferation (CellTiter luminescent viability); conditions: Homo sapiens, MOLT-4, 96 h, Table IA2, IRAK4 inhibitor-based, 96 hours; for inhibition at 0.01 µM: Molt-4, 10 nM, read-out: Inhibition Rate at 10 nM (%); for inhibition at 0.5 µM: Molt-4, 500 nM, read-out: Inhibition Rate at 500 nM (%)
[5] = test system: Human Multiple myeloma cell line (MM.1S); assay: Inhibition of MM.1S cell proliferation (CellTiter luminescent viability); conditions: Homo sapiens, MM1.S, Table IA5, IRAK4 inhibitor-based, 96 hours; for inhibition at 0.01 µM: 10 nM, read-out: Inhibition Rate at 10 nM (%); for inhibition at 0.5 µM: 500 nM, read-out: Inhibition Rate at 500 nM (%)
In short: as §4

IRAK4 = molecular target: T1, IRAK4 (Homo sapiens, UniProt Q9NWZ3); assay: Western blot degradation of IRAK4; conditions: hPBMC Cell; 24 hours
T1 construct: expression of target proteins in cells; endogenous in cells
T1 sequence (Q9NWZ3 1-460): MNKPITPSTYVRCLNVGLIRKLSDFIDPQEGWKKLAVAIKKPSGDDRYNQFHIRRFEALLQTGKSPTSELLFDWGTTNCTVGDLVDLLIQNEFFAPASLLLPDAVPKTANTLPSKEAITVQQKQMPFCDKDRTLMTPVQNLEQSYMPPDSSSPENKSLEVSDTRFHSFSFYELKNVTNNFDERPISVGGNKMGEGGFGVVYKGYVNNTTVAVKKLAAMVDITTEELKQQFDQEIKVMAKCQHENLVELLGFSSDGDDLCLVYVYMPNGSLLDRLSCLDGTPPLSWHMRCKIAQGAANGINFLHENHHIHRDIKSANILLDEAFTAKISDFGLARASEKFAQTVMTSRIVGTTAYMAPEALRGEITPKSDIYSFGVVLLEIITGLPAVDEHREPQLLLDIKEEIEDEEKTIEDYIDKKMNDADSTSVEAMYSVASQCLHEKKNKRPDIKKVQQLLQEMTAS
In short: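 Cells treated with compound, lysed, and target protein detected by Western blot (SDS-PAGE, nitrocellulose transfer). DC50 taken as the concentration giving band grayscale half that of DMSO control, estimated by concentration-response fitting; remaining protein (%) from target band normalised to internal control band; degradation (%) = 1 − remaining.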

| Degradation of substrate protein IRAK4 (substrate protein remaining %) (IRAK4) | Compound | inhibition at 0.5 µM [1] [%] | inhibition at 0.01 µM [2] [%] | inhibition at 0.01 µM [3] [%] | inhibition at 0.5 µM [3] [%] | inhibition at 0.01 µM [4] [%] | inhibition at 0.5 µM [4] [%] | inhibition at 0.01 µM [5] [%] | inhibition at 0.5 µM [5] [%] |
| --- | --- | --- | --- | --- | --- | --- | --- | --- | --- |
|  | CC(C)(O)c1cc2nc(C3CCN(Cc4ccc5c(c4)CN(N4CCC(=O)NC4=O)C5=O)CC3)sc2cc1NC(=O)c1cccc(C(F)(F)F)n1 [GT-05747, N-(2-(1-((2-(2,4-dioxotetrahydropyrimidin-1(2H)-yl)-1-oxoisoindolin-5-yl)methyl)piperidin-4-yl)-5-(2-hydroxypropan-2-yl)benzo[d]thiazol-6-yl)-6-(trifluoromethyl) picolinamide] | 25 to 30 | 25 to 30 | 36 to 45 | 80 to 100 |  |  |  |  |
|  | O=C1CCN(N2C(=O)c3cccc(N4CCC(CN5CCC(n6cc(NC(=O)c7cnn8ccc(N9CCOCC9)nc78)c(C(F)F)n6)CC5)CC4)c3C2=O)C(=O)N1 [GT-05224, N-(3-(difluoromethyl)-1-(1-((1-(2-(2,4-dioxotetrahydropyrimidin-1(2H)-yl)-1,3-dioxoisoindolin-4-yl)piperidin-4-yl)methyl)piperidin-4-yl)-1H-pyrazol-4-yl)-5-morpholinopyrazolo[1,5-a]pyrimidine-3-carboxamide] | 30 to 40 | 20 to 25 | 50 to 60 | 80 to 100 | 0 to 3 | 80 to 100 | 15 to 20 | 60 to 80 |
|  | Cc1cc(-c2nc(C(=O)Nc3cc4oc(N5CCN(Cc6ccc7c(c6)CN(N6CCC(=O)NC6=O)C7=O)CC5)nc4nc3N3CC[C@@H](O)C3)co2)ccn1 [GT-05750, (R)—N-(2-(4-((2-(2,4-dioxotetrahydropyrimidin-1(2H)-yl)-1-oxoisoindolin-5-yl)methyl)piperazin-1-yl)-5-(3-hydroxypyrrolidin-1-yl)oxazolo[4,5-b]pyridin-6-yl)-2-(2-methylpyridin-4-yl) oxazole-4-carboxamide] | 20 to 25 | 25 to 30 | 36 to 45 | 80 to 100 |  |  |  |  |
|  | Cc1cc(-c2nc(C(=O)Nc3cc4oc(N5CCN(Cc6ccc7c(c6)C(=O)N(N6CCC(=O)NC6=O)C7=O)CC5)nc4nc3N3CC[C@@H](O)C3)co2)ccn1 [GT-05803, (R)—N-(2-(4-((2-(2,4-dioxotetrahydropyrimidin-1(2H)-yl)-1,3-dioxoisoindolin-5-yl)methyl)piperazin-1-yl)-5-(3-hydroxypyrrolidin-1-yl)oxazolo[4,5-b]pyridin-6-yl)-2-(2-methylpyridin-4-yl) oxazole-4-carboxamide] | 20 to 25 | 25 to 30 | 50 to 60 | 60 to 80 |  |  | 30 to 40 | 25 to 30 |
| A (0%≤substrate protein remaining %≤80%) | COc1cc2nn([C@H]3CC[C@H](CN4CCN(c5cccc6c5C(=O)N(N5CCC(=O)NC5=O)C6=O)CC4)CC3)cc2cc1NC(=O)c1cccc(C(F)(F)F)c1 [GT-08668, N-(2-((1r,4r)-4-((4-(2-(2,4-dioxotetrahydropyrimidin-1(2H)-yl)-1,3-dioxoisoindolin-4-yl)piperazin-1-yl)methyl)cyclohexyl)-6-methoxy-2H-indazol-5-yl)-3-(trifluoromethyl)benzamide] | 30 to 40 | 20 to 25 |  |  |  |  |  |  |
| A (0%≤substrate protein remaining %≤80%) | COc1cc2nn([C@H]3CC[C@H](CN4C5CC4CN(c4ccc6c(c4)C(=O)N(N4CCC(=O)NC4=O)C6=O)C5)CC3)cc2cc1NC(=O)c1cccc(C(F)(F)F)n1 [GT-08653, N-(2-((1r,4r)-4-((3-(2-(2,4-dioxotetrahydropyrimidin-1(2H)-yl)-1,3-dioxoisoindolin-5-yl)-3,6-diazabicyclo[3.1.1]heptan-6-yl)methyl)cyclohexyl)-6-methoxy-2H-indazol-5-yl)-6-(trifluoromethyl) picolinamide] | 25 to 30 | 15 to 20 |  |  |  |  |  |  |
|  | CC(C)(O)c1cc2nc(C3CCN(CC4CCN(c5ccc6c(c5)C(=O)N(N5CCC(=O)NC5=O)C6=O)CC4)CC3)oc2cc1NC(=O)c1cccc(C(F)(F)F)n1 [GT-05222, N-(2-(1-((1-(2-(2,4-dioxotetrahydropyrimidin-1(2H)-yl)-1,3-dioxoisoindolin-5-yl)piperidin-4-yl)methyl)piperidin-4-yl)-5-(2-hydroxypropan-2-yl)benzo[d]oxazol-6-yl)-6-(trifluoromethyl) picolinamide] | 30 to 40 | 30 to 40 |  |  |  |  | 30 to 40 | 25 to 30 |
|  | O=C1CCN(N2C(=O)c3ccc(N4CCC(N5CCC(CN6CCC(n7cc(NC(=O)c8cnn9ccc(N%10CCOCC%10)nc89)c(C(F)F)n7)CC6)CC5)CC4)cc3C2=O)C(=O)N1 [GT-05760, N-(3-(difluoromethyl)-1-(1-((1′-(2-(2,4-dioxotetrahydropyrimidin-1(2H)-yl)-1,3-dioxoisoindolin-5-yl)-[1,4′-bipiperidin]-4-yl)methyl)piperidin-4-yl)-1H-pyrazol-4-yl)-5-morpholinopyrazolo[1,5-a]pyrimidine-3-carboxamide] | 30 to 40 | 25 to 30 | 50 to 60 | 80 to 100 |  |  | 25 to 30 | 30 to 40 |
|  | O=C1CCN(N2Cc3cc(CN4CCC(n5cc(NC(=O)c6coc(-c7ccnc(NCC(F)(F)F)c7)n6)c(C(F)F)n5)CC4)ccc3C2=O)C(=O)N1 [GT-05184, N-(3-(difluoromethyl)-1-(1-((2-(2,4-dioxotetrahydropyrimidin-1(2H)-yl)-1-oxoisoindolin-5-yl)methyl)piperidin-4-yl)-1H-pyrazol-4-yl)-2-(2-((2,2,2-trifluoroethyl)amino)pyridin-4-yl) oxazole-4-carboxamide] | 80 to 100 | 20 to 25 | 50 to 60 | 80 to 100 | 3 to 7 | 80 to 100 | 5 to 10 | 80 to 100 |
